Test results published in PubChem BioAssay AID1918941 (Molecular Pharmacology Branch, DTP, NCI, 2023).

Tested on: SW 1271 complex spheroids, viability
Assay: Anticancer human tumor SW 1271 cell line growth inhibition [LSD1];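 note: spheroids exposed to agents for 7 days before luminescence read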;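 for viability, T/C: 100% = DMSO vehicle control viability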
Conditions: for IC50: curve of first compound; for viability, T/C: stronger effect = lower value
How it was run: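 Drug combinations with the LSD1 inhibitor iadademstat tested on tumor cells co-cultured as spheroids with endothelial cells and mesenchymal stem cells. Concentrations descended in half-log increments from clinical Cmax or 10 microM.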

[1] = second compound 0.1 µM, first compound 0.000316 µM
[2] = second compound 0.1 µM, first compound 0.001 µM
[3] = second compound 0.1 µM, first compound 0.00316 µM
[4] = second compound 0.1 µM, first compound 0.01 µM
[5] = second compound 0.1 µM, first compound 0.0316 µM
[6] = second compound 0.1 µM, first compound 0.1 µM
[7] = second compound 0.316 µM, first compound 0.000316 µM
[8] = second compound 0.316 µM, first compound 0.001 µM
[9] = second compound 0.316 µM, first compound 0.00316 µM
[10] = second compound 0.316 µM, first compound 0.01 µM
[11] = second compound 0.316 µM, first compound 0.0316 µM
[12] = second compound 0.316 µM, first compound 0.1 µM
[13] = second compound 1 µM, first compound 0.000316 µM
[14] = second compound 1 µM, first compound 0.001 µM
[15] = second compound 1 µM, first compound 0.00316 µM
[16] = second compound 1 µM, first compound 0.01 µM
[17] = second compound 1 µM, first compound 0.0316 µM
[18] = second compound 1 µM, first compound 0.1 µM
[19] = second compound 3.16 µM, first compound 0.000316 µM
[20] = second compound 3.16 µM, first compound 0.001 µM
[21] = second compound 3.16 µM, first compound 0.00316 µM
[22] = second compound 3.16 µM, first compound 0.01 µM
[23] = second compound 3.16 µM, first compound 0.0316 µM
[24] = second compound 3.16 µM, first compound 0.1 µM
[25] = second compound 10 µM, first compound 0.000316 µM
[26] = second compound 10 µM, first compound 0.001 µM
[27] = second compound 10 µM, first compound 0.00316 µM
[28] = second compound 10 µM, first compound 0.01 µM
[29] = second compound 10 µM, first compound 0.0316 µM
[30] = second compound 10 µM, first compound 0.1 µM

Row | SMILES | IC50 (second compound 0.1 µM) [nM] | IC50 (second compound 0.316 µM) [nM] | IC50 (second compound 1 µM) [nM] | IC50 (second compound 3.16 µM) [nM] | IC50 (second compound 10 µM) [nM] | viability, T/C [3] [%] | viability, T/C [4] [%] | viability, T/C [5] [%] | viability, T/C [6] [%] | viability, T/C [9] [%] | viability, T/C [10] [%] | viability, T/C [11] [%] | viability, T/C [12] [%] | viability, T/C [15] [%] | viability, T/C [16] [%] | viability, T/C [17] [%] | viability, T/C [18] [%] | viability, T/C [21] [%] | viability, T/C [22] [%] | viability, T/C [23] [%] | further results
1 | CC(C)CC(NC(=O)C(Cc1ccccc1)NC(=O)c1cnccn1)B(O)O (stereo not given) + NC1CCC(NC2CC2c2ccccc2)CC1 | < 0.316 | < 0.316 | < 0.316 | < 0.316 | < 0.316 | 0.16 | 0.13 | 0.13 | 0.32 | 0.12 | 0.27 | 0.33 | 0.2 | 1.7 | 0.43 | 0.14 | 0.11 | 0.37 | 0.09 | 0.16 | viability, T/C [1]: 2.37%; viability, T/C [2]: 0.35%; viability, T/C [7]: 3.05%; viability, T/C [8]: 0.13%; viability, T/C [13]: 2.83%; viability, T/C [14]: 0.08%; viability, T/C [19]: 2.94%; viability, T/C [20]: 0.33%; viability, T/C [24]: 0.31%; viability, T/C [25]: 2.41%; viability, T/C [26]: 0.43%; viability, T/C [27]: 0.14%; viability, T/C [28]: 0.16%; viability, T/C [29]: 0.12%; viability, T/C [30]: 0.19%
2 | CC(C)CC(NC(=O)CNC(=O)c1cc(Cl)ccc1Cl)B1OC(=O)CC(CC(=O)O)(C(=O)O)O1 (stereo not given) + NC1CCC(NC2CC2c2ccccc2)CC1 | 4.95 | 4.94 | 5.09 | 5.19 | 5.23 | 78.4 | 5.55 | 0.31 | 0.44 | 78.1 | 5.75 | 0.88 | 0.13 | 83.8 | 6.04 | 0.34 | 0.23 | 81.4 | 8.6 | 0.51 | viability, T/C [1]: 93.8%; viability, T/C [2]: 88.8%; viability, T/C [7]: 92.7%; viability, T/C [8]: 90%; viability, T/C [13]: 78.5%; viability, T/C [14]: 80.4%; viability, T/C [19]: 93.7%; viability, T/C [20]: 93.9%; viability, T/C [24]: 0.36%; viability, T/C [25]: 85.3%; viability, T/C [26]: 79.2%; viability, T/C [27]: 86.2%; viability, T/C [28]: 6.72%; viability, T/C [29]: 0.65%; viability, T/C [30]: 0.38%
3 | COc1cc(Nc2ncc3c(n2)-c2ccc(Cl)cc2C(c2c(F)cccc2OC)=NC3)ccc1C(=O)O + NC1CCC(NC2CC2c2ccccc2)CC1 | 200 | 148 | 184 | 175 | 186 | 84.2 | 78.2 | 80.3 | 59.5 | 81.2 | 80.3 | 75.9 | 55.4 | 83.5 | 81.9 | 85.4 | 58.3 | 97.3 | 80.4 | 84.8 | viability, T/C (second compound 0.1 µM, first compound 0.316 µM): 42.9%; viability, T/C (second compound 0.1 µM, first compound 1 µM): 16%; viability, T/C (second compound 0.316 µM, first compound 0.316 µM): 36%; viability, T/C (second compound 0.316 µM, first compound 1 µM): 13.5%; viability, T/C (second compound 1 µM, first compound 0.316 µM): 40.4%; viability, T/C (second compound 1 µM, first compound 1 µM): 13.7%; viability, T/C [24]: 62.1%; viability, T/C (second compound 3.16 µM, first compound 0.316 µM): 36.3%; viability, T/C (second compound 3.16 µM, first compound 1 µM): 15.1%; viability, T/C [27]: 81.3%; viability, T/C [28]: 80.5%; viability, T/C [29]: 79.7%; viability, T/C [30]: 59.2%; viability, T/C (second compound 10 µM, first compound 0.316 µM): 40.7%; viability, T/C (second compound 10 µM, first compound 1 µM): 14.1%
